Results: patent publication EP2396329B1, “COMPOUNDS FOR THE TREATMENT OF HEPATITIS C” (priority 2009, dated 2010)
pEC50, pIC50: −log10 of the molar value.

molecular target: T1, HCV NS5B (Hepatitis C virus genotype 1b, UniProt Q9WMX2); assay: HCV NS5B RdRp enzyme assay (standard or modified); type: biochemical; conditions: HCV NS5B RdRp enzyme, genotype 1b; read-out: IC50
T1 construct: The protein was expressed with an 18 amino acid C-terminal truncation to enhance the solubility; made in house; host or cells: E. coli BL21(DE3)
Method: HCV NS5B RdRp cloning, expression, and purification. The cDNA encoding the NS5B protein of HCV, genotype 1b, was cloned into the pET21a expression vector. The protein was expressed with an 18 amino acid C-terminal truncation to enhance the solubility. The E. coli competent cell line BL21(DE3) was used for expression of the protein. Cultures were grown at 37 °C for ~ 4 hours until the cultures reached an optical density of 2.0 at 600 nm. The cultures were cooled to 20 °C and induced with I mM IPTG. Fresh ampicillin was added to a final concentration of 50 µg/ml and the cells were grown overnight at 20 °C.
Cell pellets (3L) were lysed for purification to yield 15-24 mgs of purified NS5B. The lysis buffer consisted of 20 mM Tris-HCl, pH 7.4, 500 mM NaCl, 0.5% triton X-100, 1 mM DTT, 1mM EDTA, 20% glycerol, 0.5 mg/ml lysozyme, 10 mM MgCl2, 15 ug/ml deoxyribonuclease I, and Complete TM protease inhibitor tablets (Roche). After addition of the lysis buffer, frozen cell pellets were resuspended using a tissue homogenizer. To reduce the viscosity of the sample, aliquots of the lysate were sonicated on ice using a microtip attached to a Branson sonicator. The sonicated lysate was centrifuged at 100,000 x g for 1hr at 4 °C and filtered through a 0.2 µm filter unit (Corning).
The protein was purified using three sequential chromatography steps: Heparin sepharose CL-6B, polyU sepharose 4B, and Hitrap SP sepharose (Pharmacia). The chromatography buffers were identical to the lysis buffer but contained no lysozyme, deoxyribonuclease I, MgCl2 or protease inhibitor and the NaCl concentration of the buffer was adjusted according to the requirements for charging the protein onto the column. Each column was eluted with a NaCl gradient which varied in length from 5-50 column volumes depending on the column type. After the final chromatography step, the resulting purity of the enzyme is >90% based on SDS-PAGE analysis. The enzyme was aliquoted and stored at -80 °C.
Standard HCV NS5B RdRp enzyme assay. HCV RdRp genotype 1b assays were run in a final volume of 60 µl in 96 well plates (Costar 3912). The assay buffer is composed of 20 mM Hepes, pH 7.5, 2.5 mM KCI, 2.5 mM MgCl2, 1 mM DTT, 1.6 U RNAse inhibitor (Promega N2515), 0.1 mg/ml BSA (Promega R3961), and 2 % glycerol. All compounds were serially diluted (3-fold) in DMSO and diluted further in water such that the final concentration of DMSO in the assay was 2%. HCV RdRp genotype Ib enzyme was used at a final concentration of 28 nM. A polyA template was used at.6 nM, and a biotinylated oligo-dT12 primer was used at 180 nM final concentration. Template was obtained commercially (Amersham 27-4110). Biotinylated primer was prepared by Sigma Genosys. 3H-UTP was used at 0.6 µCi (0.29 µM total UTP). Reactions were initiated by the addition of enzyme, incubated at 30 °C for 60 min, and stopped by adding 25 µl of 50 mM EDTA containing SPA beads (4 µg/µl, Amersham RPNQ 0007). Plates were read on a Packard Top Count NXT after > 1hr incubation at room temperature.
Modified HCV NS5B RdRp enzyme assay. A modified enzyme assay was performed essentially as described for the standard enzyme assay except for the following: The biotinylated oligo dT12 primer was precaptured on streptavidin-coated SPA beads by mixing primer and beads in assay buffer and incubating at room temperature for one hour. Unbound primer was removed after centrifugation. The primer-bound beads were resuspended in 20 mM Hepes buffer, pH 7.5 and used in the assay at final concentrations of 20 nM primer and 0.67 µg/µl beads. Order of addition in the assay: enzyme (14 nM) was added to diluted compound followed by the addition of a mixture of template (0.2 nM), 3H-UTP (0.6 µCi, 0.29 µM), and primer-bound beads, to initiate the reaction; concentrations given are final. Reactions were allowed to proceed for 4 hours at 30° C.
IC50 values for compounds were determined using seven different [I]. […]

T1 sequence (Q9WMX2 2420-2992): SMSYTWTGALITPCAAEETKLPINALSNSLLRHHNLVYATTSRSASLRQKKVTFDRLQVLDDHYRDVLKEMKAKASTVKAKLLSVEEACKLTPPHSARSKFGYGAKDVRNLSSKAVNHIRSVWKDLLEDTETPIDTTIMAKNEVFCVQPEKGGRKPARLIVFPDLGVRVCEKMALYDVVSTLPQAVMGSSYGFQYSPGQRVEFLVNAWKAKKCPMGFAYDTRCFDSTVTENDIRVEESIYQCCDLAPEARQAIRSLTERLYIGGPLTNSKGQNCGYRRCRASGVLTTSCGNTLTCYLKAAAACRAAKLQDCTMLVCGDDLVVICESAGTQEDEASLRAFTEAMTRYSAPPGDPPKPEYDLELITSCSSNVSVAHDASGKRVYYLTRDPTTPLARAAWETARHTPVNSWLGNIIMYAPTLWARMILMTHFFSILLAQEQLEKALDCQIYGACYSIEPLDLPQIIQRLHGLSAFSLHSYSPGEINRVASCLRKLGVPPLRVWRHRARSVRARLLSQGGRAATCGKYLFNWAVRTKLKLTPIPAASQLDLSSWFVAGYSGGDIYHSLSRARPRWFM

Compound | pIC50
COC[C@@H]1CN(C(=O)c2c(C)nn(C)c2C2=Cc3cc(OC)ccc3-c3c(C4CCCCC4)c4ccc(C(=O)NS(=O)(=O)C(C)C)cc4n3C2)CCO1 | 6.30 to 9.00
COc1ccc2c(c1)C=C(c1c(C(=O)N3CCN(C)CC3)c(C)nn1C)Cn1c-2c(C2CCCCC2)c2ccc(C(=O)NS(=O)(=O)C(C)C)cc21 | 6.30 to 9.00
COc1ccc2c(c1)C=C(c1c(C(=O)N3CCOCC3)c(C(C)C)nn1C)Cn1c-2c(C2CCCCC2)c2ccc(C(=O)NS(=O)(=O)C(C)C)cc21 | 6.30 to 9.00
COc1ccc2c(c1)C=C(c1c(C(=O)N3C[C@@H](C)O[C@@H](C)C3)c(C(C)C)nn1C)Cn1c-2c(C2CCCCC2)c2ccc(C(=O)NS(=O)(=O)C(C)C)cc21 | 6.30 to 9.00
CCOC(=O)c1c(C)nn(CC)c1C1=Cc2cc(OC)ccc2-c2c(C3CCCCC3)c3ccc(C(=O)O)cc3n2C1 | 6.30 to 9.00
CCOC(=O)c1c(C)nn(CC)c1C1=Cc2cc(OC)ccc2-c2c(C3CCCCC3)c3ccc(C(=O)NS(=O)(=O)C(C)C)cc3n2C1 | 6.30 to 9.00
CCOC(=O)c1c(C)nn(CC)c1C1=Cc2cc(OC)ccc2-c2c(C3CCCCC3)c3ccc(C(N)=O)cc3n2C1 | 6.30 to 9.00
CCOC(=O)c1cnn(CC)c1C1=Cc2cc(OC)ccc2-c2c(C3CCCCC3)c3ccc(C(=O)OC(C)(C)C)cc3n2C1 | < 6.30
CCOC(=O)c1cnn(CC)c1C1=Cc2cc(OC)ccc2-c2c(C3CCCCC3)c3ccc(C(=O)O)cc3n2C1 | 6.30 to 9.00
CCOC(=O)c1cnn(CC)c1C1=Cc2cc(OC)ccc2-c2c(C3CCCCC3)c3ccc(C(=O)NS(=O)(=O)C(C)C)cc3n2C1 | 6.30 to 9.00
CCn1ncc(C(=O)N2C[C@@H](C)O[C@@H](C)C2)c1C1=Cc2cc(OC)ccc2-c2c(C3CCCCC3)c3ccc(C(=O)NS(=O)(=O)C(C)C)cc3n2C1 | 6.30 to 9.00
CCn1nc(C)c(C(=O)N2C[C@@H](C)O[C@@H](C)C2)c1C1=Cc2cc(OC)ccc2-c2c(C3CCCCC3)c3ccc(C(=O)NS(=O)(=O)N(C)C)cc3n2C1 | 6.30 to 9.00
CCn1nc(C)c(C(=O)N2C[C@@H](C)O[C@@H](C)C2)c1C1=Cc2cc(OC)ccc2-c2c(C3CCCCC3)c3ccc(C(=O)NS(=O)(=O)C4CC4)cc3n2C1 | 6.30 to 9.00

system: HCV replicon; assay: HCV replicon assay (FRET or luciferase readout); type: cell-based; conditions: Hepatitis C virus; HCV replicon cells; FRET or luciferase activity; read-out: EC50
Excerpt: FRET Assay Preparation. To perform the HCV FRET screening assay, 96-well cell culture plates were used. The FRET peptide (Anaspec, Inc.) (Taliani et al., Anal. Biochem. 1996, 240, 60-67) contains a fluorescence donor, EDANS, near one end of the peptide and an acceptor, DABCYL, near the other end. The fluorescence of the peptide is quenched by […] resonance energy transfer (RET) between the donor and the acceptor, but as the NS3 protease cleaves the peptide the products are released from RET quenching and the fluorescence of the donor becomes apparent. The assay reagent was made as follows: 5X cell Luciferase cell culture lysis reagent from Promega (#E153A) diluted to 1X with dH2O, NaCl added to 150 mM final, the FRET peptide diluted to 20 µM final from a 2 mM stock.
To prepare plates, HCV replicon cells, with or without a Renilla luciferase reporter gene, were trypsinized and placed into each well of a 96-well plate with titrated test compounds added in columns 3 through 12; columns 1 and 2 contained a control compound (HCV protease inhibitor), and the bottom row contained cells without compound. The plates were then placed in a CO2 incubator at 37 °C.
Assays. Subsequent to addition of the test compounds described above (FRET Assay Preparation), at various times the plate was removed and Alamar blue solution (Trek Diagnostics, #00-100) was added per well as a measure of cellular toxicity. After reading in a Cytoflour 4000 instrument (PE Biosystems), plates were rinsed with PBS and then used for FRET assay by the addition of 30 ul of the FRET peptide assay reagent described above (FRET Assay Preparation) per well. The plate was then placed into the Cytoflour 4000 instrument which had been set to 340 excite/490 emission, automatic mode for 20 cycles and the plate read in a kinetic mode. Typically, the signal to noise using an endpoint analysis after the reads was at least three-fold. Alternatively, after Alamar blue reading, plates were rinsed with PBS, 50 ul of DMEM (high glucose) without phenol red was added and plates were then used for luciferase assay using the Promega Dual-Glo Luciferase Assay System.
Compound analysis was determined by quantification of the relative HCV replicon inhibition and the relative cytotoxicity values. To calculate cytoxicity values, the average Alamar Blue fluorescence signals from the control wells were set as 100% non-toxic. The individual signals in each of the compound test wells were then divided by the average control signal and multiplied by 100% to determine […]. To calculate the HCV replicon inhibition values, an average background value was obtained from the two wells containing the highest amount of HCV protease inhibitor at the end of the assay period. These numbers were similar to those obtained from naïve Huh-7 cells.
The background numbers were then subtracted from the average signal obtained from the control wells and this number was used as 100% activity. The individual signals in each of the compound test wells were then divided by the averaged control values after background subtraction and multiplied by 100% to determine percent activity. EC50 values for a protease inhibitor titration were calculated as the concentration which caused a 50% reduction in FRET or luciferase activity. The two numbers generated for the compound plate, percent cytoxicity and percent activity were used to determine compounds of interest for further analysis.

Compound | pEC50
COC[C@@H]1CN(C(=O)c2c(C)nn(C)c2C2=Cc3cc(OC)ccc3-c3c(C4CCCCC4)c4ccc(C(=O)NS(=O)(=O)C(C)C)cc4n3C2)CCO1 | 6.30 to 9.00
COc1ccc2c(c1)C=C(c1c(C(=O)N3CCN(C)CC3)c(C)nn1C)Cn1c-2c(C2CCCCC2)c2ccc(C(=O)NS(=O)(=O)C(C)C)cc21 | 6.30 to 9.00
COc1ccc2c(c1)C=C(c1c(C(=O)N3CCOCC3)c(C(C)C)nn1C)Cn1c-2c(C2CCCCC2)c2ccc(C(=O)NS(=O)(=O)C(C)C)cc21 | 6.30 to 9.00
COc1ccc2c(c1)C=C(c1c(C(=O)N3C[C@@H](C)O[C@@H](C)C3)c(C(C)C)nn1C)Cn1c-2c(C2CCCCC2)c2ccc(C(=O)NS(=O)(=O)C(C)C)cc21 | 6.30 to 9.00
CCOC(=O)c1c(C)nn(CC)c1C1=Cc2cc(OC)ccc2-c2c(C3CCCCC3)c3ccc(C(=O)O)cc3n2C1 | < 6.30
CCOC(=O)c1c(C)nn(CC)c1C1=Cc2cc(OC)ccc2-c2c(C3CCCCC3)c3ccc(C(=O)NS(=O)(=O)C(C)C)cc3n2C1 | < 6.30
CCOC(=O)c1c(C)nn(CC)c1C1=Cc2cc(OC)ccc2-c2c(C3CCCCC3)c3ccc(C(N)=O)cc3n2C1 | < 6.30
CCOC(=O)c1cnn(CC)c1C1=Cc2cc(OC)ccc2-c2c(C3CCCCC3)c3ccc(C(=O)OC(C)(C)C)cc3n2C1 | < 6.30
CCOC(=O)c1cnn(CC)c1C1=Cc2cc(OC)ccc2-c2c(C3CCCCC3)c3ccc(C(=O)O)cc3n2C1 | < 6.30
CCOC(=O)c1cnn(CC)c1C1=Cc2cc(OC)ccc2-c2c(C3CCCCC3)c3ccc(C(=O)NS(=O)(=O)C(C)C)cc3n2C1 | < 6.30
CCn1ncc(C(=O)N2C[C@@H](C)O[C@@H](C)C2)c1C1=Cc2cc(OC)ccc2-c2c(C3CCCCC3)c3ccc(C(=O)NS(=O)(=O)C(C)C)cc3n2C1 | 6.30 to 9.00
CCn1nc(C)c(C(=O)N2C[C@@H](C)O[C@@H](C)C2)c1C1=Cc2cc(OC)ccc2-c2c(C3CCCCC3)c3ccc(C(=O)NS(=O)(=O)N(C)C)cc3n2C1 | 6.30 to 9.00
CCn1nc(C)c(C(=O)N2C[C@@H](C)O[C@@H](C)C2)c1C1=Cc2cc(OC)ccc2-c2c(C3CCCCC3)c3ccc(C(=O)NS(=O)(=O)C4CC4)cc3n2C1 | 6.30 to 9.00
